In one data set the test system is Pml promoter. In words: PML promoter Gaussia Luciferase reporter assay in HEK-293 cells. As to conditions: HEK-293, 24 h post transfection; FIG. 28. In kind it is cell-based, human. The procedure: FIG. 28: Luciferase assay using a construct coding for the PML promoter cloned upstream of the reporter gene Gaussia Luciferase. HEK-293 cells were pre-treated with CH223191 and transfected with plasmids as indicated. 24 h post transfection, cells were harvested for quantification of Gaussia Luciferase and TK-Renilla activity. Data represent the mean+s.e.m. from three independent experiments. P values were determined by a one-way ANOVA followed by Tukey's post-hoc test.
PML shRNA plasmid (sc-36284-SH) was obtained from Santa Cruz Biotechnology. Transfection of HeLa cells was performed using Lipofectamine 2000 (Thermo Fisher) according to manufacturer's instructions. The plasmid encoding for the promoter region of PML, placed upstream of the Gaussia Luciferase (GLuc) reporter gene, was obtained from Genecopoeia. For the luciferase assay, HEK-293 cells were grown in 96 well-plates and transfected using Fugene-HD Transfection Reagent (Roche). Plasmids used for transfection in each condition are indicated in the experiment. 24 h later, pGudluc activity was analyzed using BioLux Gaussia Luciferase Assay Kit (New England Biolabs) and normalized to TK-Renilla luciferase activity, measured using the Renilla Luciferase Assay System (Promega).
On the technique in general: In a reporter assay the amount or activity of a reporter protein is the signal.

The subject of data set [1] is ZIKV (Puerto Rico strain, PRVABC59). In words: Flow cytometry quantification of HepG2 cells positive for Flavivirus antigen after ZIKV infection. In kind it is cell-based, Zika virus. To be noted: HepG2, ZIKV PRVABC59 moi=1, 48 h, pre-treated; FIG. 7C. As to the method:
FIGS. 7A-7K: AHR signaling boosts ZIKV replication in vitro. Flow cytometry quantification of HepG2 cells positive for Flavivirus antigen. HepG2 cells were pre-treated with different concentrations of I3S, CH223191 or DMSO (vehicle) and infected with ZIKV (moi=1) for 48 h. Plots shown are representative of one experiment. Bar graphs (FIG. 7C) represent the mean+s.e.m. of Flavivirus antigen positive cells from at least three independent experiments. P values were determined by a one-way ANOVA followed by Tukey's post-hoc test.
Stock solutions of I3S and CH223191 were prepared in DMSO, aliquoted and stored according to manufacturer's instructions. For CH223191, cells were pre-treated for 90 minutes and then used for further studies. For I3S, cells were pre-treated overnight.
Cells were fixed and permeabilized using Cytofix/Cytoperm (BD Biosciences). Secondary antibody for flow cytometry was phycoerythrin (PE) goat anti-mouse IgG (BD Biosciences) at a concentration of 1:200. Cells were analyzed on a Guava easyCyte flow cytometer and data was processed using FlowJo software.
A general note: A flow cytometer gives signals particle by particle.

In the next data set the test system is DENV-2. In words: DENV viral RNA (qPCR) and viral protein (immunofluorescence) in A549 cells. In kind it is cell-based, dengue virus. To be noted: FIGS. 64A-64B and 65A-65C. The text has this:
FIGS. 64A and 64B: A549 cells positive for Flavivirus antigen determined by immunofluorescence. Cells infected with DENV-2 from FIG. 63C were fixed, stained against Flavivirus envelope protein and visualized under a fluorescence microscope (FIG. 64A). Images of random fields of view were acquired and the number of cells positive for Flavivirus antigen was counted using FIJI (FIG. 64B).
FIGS. 65A-65C: RNA expression of DENV-2 (FIG. 65A), AHR (FIG. 65B) and CYP1A1 (FIG. 65C) determined by qPCR. A549 cells were infected with DENV-2 (moi=0.1) and 48 h p.i. they were harvested for qPCR analysis.
For orientation: Quantitative PCR measures a nucleic acid by following its amplification.

In a further data set the test system is AHR. In words: AHR modulation in NPCs, qPCR of AHR, CYP1A1, IDO1 and TDO2. To be noted: at the concentrations tested; NPCs 24 h; FIGS. 10A-10D. In kind it is cell-based, human. As to the method: FIGS. 10A-10D: AHR modulation in NPCs. NPCs were treated with I3S or a combination of I3S and CH223191. 24 h after treatment, NPCs were harvested for RNA extraction followed by qPCR analysis of AHR (FIG. 10A), CYP1A1 (FIG. 10B), IDO1 (FIG. 100) and TDO2 (FIG. 10D). Data represent the mean+s.e.m. from three independent experiments. P values were determined by Student's t-test.
RNA was extracted using the RNAeasy kit (Qiagen). cDNA was synthesized using the High-Capacity cDNA Reverse Transcription kit (Applied Biosystems) and qPCR was performed using TaqMan Fast Advanced Master Mix (Applied Biosystems). Gene expression was normalized to GAPDH. Primers and probes (Applied Biosystems) were: GAPDH Hs02786624_g1, IFNB1 Hs01077958_s1, AHR Hs00169233_m1, PML Hs00971694_m1, CYP1A1 Hs01054796_g1, IFITM1 Hs00705137_s1, CYP1B1 Hs02382916_s1, CXCL10 Hs00171042_m1, IDO1 Hs00984148_m1, IDO2 Hs01589373_m1, IFITM Hs00705137_s1, TDO Hs00194611_m1. Primers and probes for the specific detection of Zika virus RNA were utilized as previously described^81, 82. For viral load determination in vivo, brains and spleens from pups were macerated on trizol (Invitrogen) for RNA extraction. RNA pellets were resuspended in RNase-free water and quantified by spectrophotometry (NanoDrop—Thermo Scientific) and stored at −80° C. […] Quantification was compared with threshold cycle (Ct) value with a ZIKV plasmid standard curve.

On to `Cc1ccccc1/N=N/c1ccc(NC(=O)c2ccnn2C)c(C)c1` [CH223191, 2-Methyl-2H-pyrazole-3-carboxylic Acid (2-methyl-4-o-tolylazo-phenyl)-amide], for which the “Pml promoter transactivation by NF-κB in presence of co-expressed AHR” value with Pml promoter is “rescued”. In addition, in data set [1], the “reduction of ZIKV replication, HepG2 cells expressing viral antigen” value is recorded as “more than 50%”. Moreover, in the data set with DENV-2, the “DENV viral RNA and viral protein expression levels” value is recorded as “inhibition”. Moreover, the “AHR inhibition / activation” value in the data set with AHR is “significant AHR inhibition”.

For the origin of these results see US20220323402A1, “TREATMENT, AMELIORATION OR PREVENTION OF A VIRAL INFECTION” (priority 2019, published 2022).
